# Data taken from ChEMBL document CHEMBL1201862, “PubChem BioAssay data set” (2004).
# Activity calls are given as the source filed them.
# Tests used:
# [1] = molecular target: T1, Aryl hydrocarbon receptor (Homo sapiens, UniProt P35869); assay: Luminescence-based cell-based high throughput dose response assay for activators of the Aryl Hydrocarbon Receptor (AHR). [Related pubchem assays: 2796 (Primary screen (AHR activators in singlicate)), 2845 (Confirmation screen (AHR activators in triplicate)), 434939 (Counterscreen (PXR activators in triplicate)), 2804 (Summary (AHR activators))]; type: ADME
# T1 sequence (P35869 whole entry): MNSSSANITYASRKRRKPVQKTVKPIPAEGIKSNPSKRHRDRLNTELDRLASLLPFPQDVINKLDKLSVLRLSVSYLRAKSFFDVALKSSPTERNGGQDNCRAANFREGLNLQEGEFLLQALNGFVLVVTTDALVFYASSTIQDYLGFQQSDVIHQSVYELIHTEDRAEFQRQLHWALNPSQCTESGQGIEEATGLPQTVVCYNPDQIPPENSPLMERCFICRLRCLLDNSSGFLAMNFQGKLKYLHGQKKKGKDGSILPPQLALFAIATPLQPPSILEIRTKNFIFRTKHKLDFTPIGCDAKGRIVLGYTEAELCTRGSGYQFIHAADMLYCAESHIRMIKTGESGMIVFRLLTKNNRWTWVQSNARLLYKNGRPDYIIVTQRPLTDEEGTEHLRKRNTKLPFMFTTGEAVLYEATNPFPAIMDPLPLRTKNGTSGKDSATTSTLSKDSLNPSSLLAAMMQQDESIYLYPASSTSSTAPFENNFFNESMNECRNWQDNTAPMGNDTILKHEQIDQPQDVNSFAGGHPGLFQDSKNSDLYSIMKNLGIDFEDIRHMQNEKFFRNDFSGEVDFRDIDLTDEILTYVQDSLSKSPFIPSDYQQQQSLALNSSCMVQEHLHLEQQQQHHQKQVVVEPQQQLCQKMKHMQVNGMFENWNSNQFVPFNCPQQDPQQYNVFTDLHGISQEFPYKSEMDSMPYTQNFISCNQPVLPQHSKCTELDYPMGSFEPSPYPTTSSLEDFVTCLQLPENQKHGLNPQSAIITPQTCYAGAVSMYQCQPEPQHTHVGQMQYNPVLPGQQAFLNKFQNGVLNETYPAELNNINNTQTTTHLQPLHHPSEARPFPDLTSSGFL
# [2] = molecular target: Neuropeptide Y receptor type 1 (Homo sapiens, UniProt P25929); type: functional;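 further: HEK293 cells with a CNG channel challenged with NPY then isoproterenol; potency as antagonist that reverses NPY suppression of cAMP signal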
# Sequence of Neuropeptide Y receptor type 1 (P25929 whole entry): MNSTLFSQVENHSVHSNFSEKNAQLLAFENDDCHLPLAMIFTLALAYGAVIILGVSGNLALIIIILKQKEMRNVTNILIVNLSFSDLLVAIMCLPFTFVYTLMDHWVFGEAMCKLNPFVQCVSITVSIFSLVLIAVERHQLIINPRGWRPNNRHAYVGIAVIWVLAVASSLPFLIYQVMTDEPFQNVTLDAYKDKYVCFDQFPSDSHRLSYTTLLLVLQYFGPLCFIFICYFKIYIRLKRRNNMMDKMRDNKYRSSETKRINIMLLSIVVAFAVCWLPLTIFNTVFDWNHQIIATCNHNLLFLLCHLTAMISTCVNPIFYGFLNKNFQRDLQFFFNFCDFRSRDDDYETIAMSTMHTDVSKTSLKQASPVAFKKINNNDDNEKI
# [3] = molecular target: Neuropeptide Y receptor type 2 (Homo sapiens, UniProt P49146); type: functional, cell-based;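 further: HEK293 cells expressing the receptor and a CNG channel; stimulus was NPY near EC95 followed by isoproterenol to raise cAMP; antagonist potency measured as restoring cAMP signal that NPY suppresses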
# Sequence of Neuropeptide Y receptor type 2 (P49146 whole entry): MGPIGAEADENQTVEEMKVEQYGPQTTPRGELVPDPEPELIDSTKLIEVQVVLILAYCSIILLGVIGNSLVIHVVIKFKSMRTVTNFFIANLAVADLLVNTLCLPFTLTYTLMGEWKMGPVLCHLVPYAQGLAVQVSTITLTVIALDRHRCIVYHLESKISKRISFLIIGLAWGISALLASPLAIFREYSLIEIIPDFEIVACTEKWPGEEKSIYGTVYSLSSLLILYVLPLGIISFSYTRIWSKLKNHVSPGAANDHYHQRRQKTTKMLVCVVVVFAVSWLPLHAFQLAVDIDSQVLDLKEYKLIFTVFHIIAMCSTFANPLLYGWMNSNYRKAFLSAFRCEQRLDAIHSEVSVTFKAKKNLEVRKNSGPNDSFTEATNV
# [4] = molecular target: Luciferin 4-monooxygenase (Photinus pyralis, UniProt P08659); assay: Counter Screen for Luciferase-based Assay Positives. [Related pubchem assays: 620, 618, 411 ]
# Sequence of Luciferin 4-monooxygenase (P08659 whole entry): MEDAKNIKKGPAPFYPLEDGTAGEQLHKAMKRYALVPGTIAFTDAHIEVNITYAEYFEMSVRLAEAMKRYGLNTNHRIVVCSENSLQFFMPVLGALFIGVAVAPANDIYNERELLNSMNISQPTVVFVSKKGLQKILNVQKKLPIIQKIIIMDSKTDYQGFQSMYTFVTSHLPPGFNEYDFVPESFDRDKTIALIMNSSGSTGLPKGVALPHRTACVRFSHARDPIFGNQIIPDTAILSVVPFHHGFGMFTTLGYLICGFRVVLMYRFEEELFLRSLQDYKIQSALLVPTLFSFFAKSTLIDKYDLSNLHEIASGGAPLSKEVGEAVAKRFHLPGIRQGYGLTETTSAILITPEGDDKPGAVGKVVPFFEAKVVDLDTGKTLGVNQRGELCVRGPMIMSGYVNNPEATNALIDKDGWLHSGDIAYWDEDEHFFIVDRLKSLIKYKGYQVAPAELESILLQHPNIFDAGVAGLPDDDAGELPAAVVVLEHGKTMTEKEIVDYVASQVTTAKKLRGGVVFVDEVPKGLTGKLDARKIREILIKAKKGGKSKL
# [5] = molecular target: Protein-tyrosine kinase 2-beta (Homo sapiens, UniProt Q14289);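 further: potency of inhibitors of PYK2 kinase phosphorylation of poly-GT substrate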
# Sequence of Protein-tyrosine kinase 2-beta (Q14289 whole entry): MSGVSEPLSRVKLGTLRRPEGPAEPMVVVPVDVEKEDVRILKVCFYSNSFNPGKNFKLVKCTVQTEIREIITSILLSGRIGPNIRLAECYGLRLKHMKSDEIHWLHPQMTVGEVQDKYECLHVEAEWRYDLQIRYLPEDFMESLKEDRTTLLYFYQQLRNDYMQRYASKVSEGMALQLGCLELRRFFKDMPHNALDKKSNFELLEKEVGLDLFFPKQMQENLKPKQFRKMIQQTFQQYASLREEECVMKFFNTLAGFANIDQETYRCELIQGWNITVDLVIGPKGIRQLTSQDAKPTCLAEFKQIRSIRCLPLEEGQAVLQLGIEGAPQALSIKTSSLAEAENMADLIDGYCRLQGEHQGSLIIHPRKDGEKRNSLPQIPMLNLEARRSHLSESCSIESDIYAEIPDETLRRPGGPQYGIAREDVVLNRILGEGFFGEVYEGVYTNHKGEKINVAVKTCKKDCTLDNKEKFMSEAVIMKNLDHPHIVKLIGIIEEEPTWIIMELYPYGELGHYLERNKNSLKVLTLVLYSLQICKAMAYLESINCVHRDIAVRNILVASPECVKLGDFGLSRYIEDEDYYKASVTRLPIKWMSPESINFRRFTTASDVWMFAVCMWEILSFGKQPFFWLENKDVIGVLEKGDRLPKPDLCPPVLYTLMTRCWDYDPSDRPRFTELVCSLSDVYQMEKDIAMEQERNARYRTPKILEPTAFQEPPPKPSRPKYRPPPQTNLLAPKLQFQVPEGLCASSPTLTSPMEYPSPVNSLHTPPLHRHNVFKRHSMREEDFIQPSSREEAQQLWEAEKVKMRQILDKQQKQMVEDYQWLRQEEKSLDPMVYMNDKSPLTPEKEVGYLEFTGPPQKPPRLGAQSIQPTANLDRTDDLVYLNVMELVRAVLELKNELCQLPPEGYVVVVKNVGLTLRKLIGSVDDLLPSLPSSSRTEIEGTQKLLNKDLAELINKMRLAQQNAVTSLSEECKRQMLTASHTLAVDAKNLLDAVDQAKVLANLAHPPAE
# HT-1080 = assay: cytotoxicity in HT1080 fibrosarcoma cells, cell-based, fluorescence readout (AID 620); type: functional; conditions: Homo sapiens
# [6] = Luminescence-based cell-based high throughput dose response assay to identify activators of the DAF-12 from the parasite S. stercoralis (ssDAF-12).; type: functional
# [7] = molecular target: T2, Oxysterols receptor LXR-beta (Homo sapiens, UniProt P55055); assay: LXR agonists, Gal4 luciferase reporter, dose response, counter-screen for ssDAF-12 agonist project, cell-based, luminescence, HEK293, S. stercoralis campaign (AID 720737); type: functional; conditions: read-out: IC50 (the source's name)
# T2 sequence (P55055 whole entry): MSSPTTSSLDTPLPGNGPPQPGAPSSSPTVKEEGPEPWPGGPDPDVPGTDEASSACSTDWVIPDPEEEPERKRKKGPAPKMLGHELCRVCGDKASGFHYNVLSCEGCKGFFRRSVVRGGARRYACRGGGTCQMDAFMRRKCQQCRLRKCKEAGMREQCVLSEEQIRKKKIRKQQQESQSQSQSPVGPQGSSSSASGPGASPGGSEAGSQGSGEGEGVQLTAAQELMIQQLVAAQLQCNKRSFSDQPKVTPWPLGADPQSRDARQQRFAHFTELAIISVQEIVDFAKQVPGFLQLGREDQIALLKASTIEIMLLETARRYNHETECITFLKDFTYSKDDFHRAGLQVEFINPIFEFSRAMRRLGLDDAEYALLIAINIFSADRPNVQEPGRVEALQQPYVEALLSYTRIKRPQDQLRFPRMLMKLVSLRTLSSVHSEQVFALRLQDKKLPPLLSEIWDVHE
# [8] = molecular target: T3, Low molecular weight phosphotyrosine protein phosphatase (Homo sapiens, UniProt P24666); assay: LMPTP phosphatase inhibitors, dose response, biochemical, OMFP substrate, fluorescence intensity, set 2 (AID 743307); type: functional
# T3 sequence (P24666 whole entry): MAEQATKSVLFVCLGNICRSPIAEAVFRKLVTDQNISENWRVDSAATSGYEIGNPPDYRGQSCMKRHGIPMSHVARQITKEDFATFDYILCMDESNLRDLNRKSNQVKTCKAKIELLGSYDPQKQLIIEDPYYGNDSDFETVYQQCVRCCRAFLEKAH
# [9] = molecular target: T3, Low molecular weight phosphotyrosine protein phosphatase; assay: LMPTP phosphatase inhibitors, colorimetric pNPP readout, dose response, orthogonal assay, biochemical, absorbance, pNPP substrate, LMPTP-A isoform, set 2 (AID 743308); type: functional
# Bcl-2-like protein 10 = molecular target: T4, Bcl-2-like protein 10 (Homo sapiens, UniProt Q9HD36); assay: displacers of TR3 peptide from Bcl-B, primary screen, selectivity assay for Bfl-1 inhibitor project, biochemical, fluorescence polarization, FITC-TR3 peptide (AID 748);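 further: fluorescence polarization from a fluorescein-labelled TR3 peptide binding purified Bcl-B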
# T4 sequence (Q9HD36 whole entry): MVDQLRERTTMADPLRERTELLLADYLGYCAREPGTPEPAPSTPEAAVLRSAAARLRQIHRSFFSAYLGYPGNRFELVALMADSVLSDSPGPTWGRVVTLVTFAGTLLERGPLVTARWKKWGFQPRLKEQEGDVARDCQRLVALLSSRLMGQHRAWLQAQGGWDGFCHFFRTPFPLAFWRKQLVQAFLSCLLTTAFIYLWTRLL
# Estrogen receptor beta [10] = molecular target: T5, Estrogen receptor beta (Homo sapiens, UniProt Q92731);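 further: recombinant ER-beta bound to coactivator SRC1 peptide in presence of estradiol agonist; inhibitors block coactivator peptide binding and lower the FRET signal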
# T5 sequence (Q92731 whole entry): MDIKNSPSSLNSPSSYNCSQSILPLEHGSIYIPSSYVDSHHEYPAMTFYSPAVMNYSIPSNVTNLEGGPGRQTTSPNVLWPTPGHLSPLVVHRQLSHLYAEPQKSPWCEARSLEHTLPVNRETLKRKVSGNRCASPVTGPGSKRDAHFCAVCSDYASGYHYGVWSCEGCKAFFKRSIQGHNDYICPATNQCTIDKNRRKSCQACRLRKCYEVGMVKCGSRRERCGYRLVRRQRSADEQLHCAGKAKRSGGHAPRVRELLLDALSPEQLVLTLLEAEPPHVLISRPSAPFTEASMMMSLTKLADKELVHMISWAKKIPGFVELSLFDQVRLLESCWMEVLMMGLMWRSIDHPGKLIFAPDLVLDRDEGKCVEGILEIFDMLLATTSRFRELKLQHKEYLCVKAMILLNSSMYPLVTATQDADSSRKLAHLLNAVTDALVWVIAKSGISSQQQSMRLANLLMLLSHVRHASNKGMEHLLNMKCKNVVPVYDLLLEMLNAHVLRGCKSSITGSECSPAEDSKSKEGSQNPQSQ
# Estrogen receptor beta [11] = molecular target: T5, Estrogen receptor beta; assay: ERβ–SRC-3 coactivator interaction inhibitors, confirmation, orthogonal assay, biochemical, ELISA, streptavidin-HRP readout (AID 1060)
# [12] = molecular target: T6, Carboxy-terminal domain RNA polymerase II polypeptide A small phosphatase 1 (Homo sapiens, UniProt Q9GZU7); assay: inhibitors of CTDSP1, concentration-response testing, biochemical assay, absorbance-based, actives from ultra-high-throughput screening (AID 540297); type: functional
# T6 sequence (Q9GZU7 whole entry): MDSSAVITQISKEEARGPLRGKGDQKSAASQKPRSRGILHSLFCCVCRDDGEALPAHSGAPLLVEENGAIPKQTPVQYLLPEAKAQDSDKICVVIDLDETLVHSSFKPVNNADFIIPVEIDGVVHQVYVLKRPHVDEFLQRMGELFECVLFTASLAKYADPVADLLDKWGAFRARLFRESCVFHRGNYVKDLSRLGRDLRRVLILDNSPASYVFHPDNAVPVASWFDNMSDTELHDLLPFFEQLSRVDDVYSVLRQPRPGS
# [13] = test system: Streptococcus sp. 'group A'; assay: growth inhibition of control SK(-) GAS strain, dose response, counter-screen for streptokinase expression inhibitor project, luminescence, kanamycin, BacTiterGlo, confirmation (AID 1900); type: functional, organism-based
# [14] = A Cell Based Secondary Assay To Explore Cytotoxicity of Compounds that Sensitize Mycobacterium Tuberculosis to Beta-Lactam Antibiotics.; type: functional
# Streptococcus = assay: Group A Streptococcus viability loss, dose response, counter-screen for streptokinase expression inhibitor project, luminescence, BacTiterGlo (AID 1915); type: functional, organism-based;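 further: potency for reduction of bacterial viability or growth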
# [15] = molecular target: Peroxisome proliferator-activated receptor gamma/Nuclear receptor coactivator 2 (Homo sapiens, UniProt P37231); type: functional;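 further: agonist potency for raising coactivator recruitment to the receptor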
# [16] = molecular target: Peroxisome proliferator-activated receptor gamma/Nuclear receptor coactivator 1 (Homo sapiens, UniProt P37231); type: functional;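 further: agonist potency as compounds enhance coactivator SRC-1 recruitment to PPARgamma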
# [17] = molecular target: Peroxisome proliferator-activated receptor gamma/Nuclear receptor coactivator 3 (Homo sapiens, UniProt P37231); type: functional;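 further: agonist potency for raising coactivator recruitment to the receptor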
# [18] = molecular target: Lysosomal acid glucosylceramidase (Homo sapiens, UniProt P04062); assay: Dose response cell-based high throughput screening assay to identify enhancers of beta-glucosidase activity. [Related pubchem assays: 784 ]; type: functional
# Sequence of Lysosomal acid glucosylceramidase (P04062 whole entry): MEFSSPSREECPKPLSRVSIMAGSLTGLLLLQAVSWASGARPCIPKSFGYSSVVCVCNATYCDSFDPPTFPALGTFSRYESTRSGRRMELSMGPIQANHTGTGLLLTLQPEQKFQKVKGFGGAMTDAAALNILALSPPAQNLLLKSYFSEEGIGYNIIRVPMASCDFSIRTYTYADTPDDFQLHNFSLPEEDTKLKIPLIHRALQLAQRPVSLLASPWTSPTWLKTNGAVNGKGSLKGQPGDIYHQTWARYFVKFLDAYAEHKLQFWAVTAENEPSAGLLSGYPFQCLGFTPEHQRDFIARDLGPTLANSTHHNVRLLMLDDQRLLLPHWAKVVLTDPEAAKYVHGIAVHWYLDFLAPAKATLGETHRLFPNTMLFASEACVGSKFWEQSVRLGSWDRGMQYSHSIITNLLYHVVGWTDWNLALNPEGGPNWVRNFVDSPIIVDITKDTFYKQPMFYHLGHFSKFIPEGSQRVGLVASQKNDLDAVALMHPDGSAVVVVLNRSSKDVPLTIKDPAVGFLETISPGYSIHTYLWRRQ
# [19] = cytotoxicity in HPDE-C7 cells, cell-based, fluorescence, HTS (AID 430); type: functional; conditions: Homo sapiens
# [20] = cytotoxicity in KRAS-transformed pancreatic duct cells, primary screen, cell-based, fluorescence, HTS (AID 431); type: functional; conditions: Homo sapiens;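 further: cell line used: HPDE-C7K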
# [21] = growth suppression of PTEN-null colon cells, dose response, cell-based, HCT116 PTEN knockout (AID 1047); type: functional;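 further: HCT116 colon tumor cells with PTEN knocked out; cells exposed to compound for 60 hours before readout; potency for loss of cell viability measured by luminescence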
# [22] = growth suppression of beta-catenin-knockout colon cells, dose response, cell-based, HCT116, human colon tumor (AID 1045); type: functional;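 further: HCT116 colon tumor cells with beta catenin knocked out; cells exposed to compound for 60 hours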
# H9c2 = assay: cells; type: functional, cell-based; conditions: Rattus norvegicus, H9c2, Myocardium;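 further: confirmatory concentration-response retest of ultra-high-throughput screening hits for modulation of myocardial damage; cell death induced by hydrogen peroxide oxidative stress; compound pretreatment for 60 min then peroxide exposure for 2 h; potency is for protecting the cells against peroxide damage rather than for killing them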
# [23] = molecular target: T7, Mannose-6-phosphate isomerase (Homo sapiens, UniProt P34949); assay: inhibitors of human PMI, primary screen, biochemical, fluorescence intensity, coupled assay (AID 1209)
# T7 sequence (P34949 whole entry): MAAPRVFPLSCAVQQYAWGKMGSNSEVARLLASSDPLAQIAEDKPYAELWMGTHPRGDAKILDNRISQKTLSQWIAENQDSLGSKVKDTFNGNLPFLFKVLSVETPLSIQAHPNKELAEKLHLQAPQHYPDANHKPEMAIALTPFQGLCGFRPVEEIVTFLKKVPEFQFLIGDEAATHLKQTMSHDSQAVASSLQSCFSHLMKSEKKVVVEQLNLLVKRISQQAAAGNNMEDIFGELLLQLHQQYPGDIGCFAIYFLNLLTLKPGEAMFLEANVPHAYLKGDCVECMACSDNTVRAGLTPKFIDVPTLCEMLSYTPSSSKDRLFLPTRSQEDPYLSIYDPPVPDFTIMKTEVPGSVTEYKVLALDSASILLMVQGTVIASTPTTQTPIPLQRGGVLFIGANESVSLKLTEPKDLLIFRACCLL
# [24] = molecular target: Transitional endoplasmic reticulum ATPase (Homo sapiens, UniProt P55072, C522A); assay: Luminescence counterscreen assay for p97 inhibitors: dose response biochemical high throughput screening assay to identify inhibitors of the C522A mutant p97 ATPase: synthesized compounds. [Related pubchem assays: 1481, 1517, 1551 ]
# Sequence of Transitional endoplasmic reticulum ATPase (Homo sapiens, UniProt P55072, C522A) (P55072 2-806 C522A limits assumed): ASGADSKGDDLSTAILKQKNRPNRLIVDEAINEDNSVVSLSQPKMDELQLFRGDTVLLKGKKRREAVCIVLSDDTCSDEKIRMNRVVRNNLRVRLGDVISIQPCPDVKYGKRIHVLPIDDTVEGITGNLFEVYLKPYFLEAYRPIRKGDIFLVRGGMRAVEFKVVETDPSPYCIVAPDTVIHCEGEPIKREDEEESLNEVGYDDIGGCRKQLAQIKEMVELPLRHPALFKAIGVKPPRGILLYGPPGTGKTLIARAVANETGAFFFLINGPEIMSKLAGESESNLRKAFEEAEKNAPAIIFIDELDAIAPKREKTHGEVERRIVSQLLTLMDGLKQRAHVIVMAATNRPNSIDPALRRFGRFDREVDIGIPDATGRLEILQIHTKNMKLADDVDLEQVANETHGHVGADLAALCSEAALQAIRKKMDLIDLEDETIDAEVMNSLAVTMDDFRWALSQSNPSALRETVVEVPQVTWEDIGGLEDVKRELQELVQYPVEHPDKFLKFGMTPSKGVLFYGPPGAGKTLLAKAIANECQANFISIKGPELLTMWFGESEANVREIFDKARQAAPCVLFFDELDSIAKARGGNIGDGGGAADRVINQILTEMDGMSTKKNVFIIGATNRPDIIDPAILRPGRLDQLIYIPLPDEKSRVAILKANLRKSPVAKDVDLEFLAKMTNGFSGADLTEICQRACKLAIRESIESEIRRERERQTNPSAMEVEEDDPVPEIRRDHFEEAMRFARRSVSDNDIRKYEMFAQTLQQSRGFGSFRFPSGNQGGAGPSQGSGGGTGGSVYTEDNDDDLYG
# [25] = molecular target: Transitional endoplasmic reticulum ATPase (Homo sapiens, UniProt P55072); assay: Luminescence dose response biochemical high throughput screening assay for inhibitors of the p97 ATPase: synthesized compounds. [Related pubchem assays: 1481, 1517 ]
# Sequence of Transitional endoplasmic reticulum ATPase (Homo sapiens, UniProt P55072) (P55072 whole entry): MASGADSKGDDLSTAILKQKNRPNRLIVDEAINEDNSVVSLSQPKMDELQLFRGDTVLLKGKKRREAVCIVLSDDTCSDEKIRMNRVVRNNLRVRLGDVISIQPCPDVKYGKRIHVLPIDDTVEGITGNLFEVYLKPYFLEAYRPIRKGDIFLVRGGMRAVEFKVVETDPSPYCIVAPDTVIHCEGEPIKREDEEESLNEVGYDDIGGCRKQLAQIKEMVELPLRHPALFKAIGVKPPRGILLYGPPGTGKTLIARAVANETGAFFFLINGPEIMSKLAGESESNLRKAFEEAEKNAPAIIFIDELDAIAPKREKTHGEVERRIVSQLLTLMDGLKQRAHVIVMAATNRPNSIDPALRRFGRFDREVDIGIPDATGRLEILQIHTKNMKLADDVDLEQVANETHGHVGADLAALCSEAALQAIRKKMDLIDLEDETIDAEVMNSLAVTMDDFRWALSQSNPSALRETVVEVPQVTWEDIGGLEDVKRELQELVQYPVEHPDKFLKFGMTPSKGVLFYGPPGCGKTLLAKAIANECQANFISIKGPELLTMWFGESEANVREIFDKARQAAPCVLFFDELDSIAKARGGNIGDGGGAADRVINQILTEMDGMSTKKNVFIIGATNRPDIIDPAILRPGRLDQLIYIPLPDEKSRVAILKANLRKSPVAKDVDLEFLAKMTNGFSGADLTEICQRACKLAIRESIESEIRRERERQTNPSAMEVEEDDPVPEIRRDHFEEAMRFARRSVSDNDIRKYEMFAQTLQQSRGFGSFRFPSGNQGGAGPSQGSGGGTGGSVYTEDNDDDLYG
# [26] = molecular target: Glyceraldehyde-3-phosphate dehydrogenase (Homo sapiens, UniProt P04406)
# Mucolipin-3 = Mucolipin-3 (Homo sapiens, UniProt Q8TDD5); assay: Dose response cell-based high-throughput screening assay for agonists of the transient receptor potential channel ML3 (TRPML3). [Related pubchem assays: 1526, 1424, 1448 ]; type: functional
# Ion channel NompC = Ion channel NompC (Danio rerio, UniProt Q7T1G6); assay: Fluorescence counterscreen assay for TRPML3 agonists: dose response cell-based high-throughput screening assay to identify agonists of the transient receptor potential channel N1 (TRPN1). [Related pubchem assays: 1526, 1424, 1448 ]; type: functional
compound,measurement,setting,value
CCOC(=O)c1oc2ccccc2c1N,EC50,[1],7.43 µM (active)
Cc1ccc2cc3c(NC(=O)CC(C)C)nn(C)c3nc2c1,EC50,[1],0.476 µM (active)
COC(=O)c1ccc(CSc2nc3sc4c(c3c(=O)n2C)CCCC4)o1,IC50,[2],6.95 µM (active)
same,IC50,[3],6.21 µM (active)
O=C1c2ccccc2C(=O)C1c1ccnc2ccccc12,EC50,[4],3.42 µM (active)
same,IC50,[5],4.75 µM (active)
same,EC50,HT-1080,> 50 µM (not active)
same,IC50,[6],> 67.5 µM (inactive)
same,EC50,[7],> 67.5 µM (inactive)
c1ccc(-c2cc(NCCCN3CCOCC3)c3ccccc3n2)cc1,IC50,[8],7.68 µM (active)
same,IC50,[9],12.6 µM (active)
COc1ccc2c(c1)c(=O)oc1cc(OCC(=O)N3CCc4ccccc4C3)ccc12,IC50,Bcl-2-like protein 10,29.8 µM (active)
same,IC50,Estrogen receptor beta [10],> 50 µM (not active)
same,IC50,Estrogen receptor beta [11],5.58 µM (active)
same,IC50,[12],2.9 µM (active)
COc1ccc(C(=O)/C=C/c2ccc(O)cc2)c(O)c1CC=C(C)C,EC50,[13],2.71 µM (active)
same,CC50,[14],> 40 µM (active)
same,EC50,Streptococcus,3.01 µM (active)
O=C1c2cccc(OCC(=O)N3CCCc4ccccc43)c2CCN1Cc1ccccc1,EC50,[15],> 79.4 µM (not active)
same,EC50,[16],> 79.4 µM (not active)
same,EC50,[17],> 79.4 µM (not active)
CCOc1ccccc1CNS(=O)(=O)c1ccc2nc(O)sc2c1,EC50,[18],> 10 µM (not active)
Cc1noc(C)c1CSCC(=O)OCC(=O)Nc1sccc1C#N,IC50,Estrogen receptor beta [10],15.8 µM (active)
same,IC50,Estrogen receptor beta [11],< 77 µM (not active)
CCOC(=O)C1=C(C)N=c2s/c(=C\c3ccncc3)c(=O)n2C1c1ccc2c(c1)OCO2 (stereo not drawn),CC50,[14],> 40 µM (active)
same,EC50,[19],16.3 µM (active)
same,EC50,[20],11 µM (active)
same,EC50,[21],10.5 µM (active)
same,EC50,[22],10.2 µM (active)
same,IC50,H9c2,> 79 µM (inactive)
Cc1ccc([N+](=O)[O-])c(C)[n+]1C,IC50,[23],> 50 µM (not active)
CCOC(=O)NC(CC(=O)O)c1ccc(OCC)cc1 (stereo not drawn),EC50,[18],> 50 µM (not active)
Cc1cc(-c2csc(Nc3ccc(C#N)cc3)n2)c(C)n1Cc1ccccc1,IC50,[24],> 50 µM (not active)
same,IC50,[25],> 50 µM (not active)
CN(C)Cc1ccccc1Sc1cccc2ccccc12,IC50,[2],6.03 µM (active)
same,IC50,[3],9.22 µM (active)
CCOC(=O)/C(C#N)=C/c1sc2ccccc2c1-c1ccccc1,IC50,[24],> 50 µM (not active)
same,IC50,[25],> 50 µM (not active)
C[C@@H]1CN(C2=C(Cl)C(=O)N(c3ccc(C(F)(F)F)cc3)C2=O)CCN1,IC50,[26],> 50 µM (inconclusive)
COc1cccc(CN(Cc2ccco2)C(c2ccc(F)cc2)c2nnnn2C(C)(C)C)c1 (stereo not drawn),EC50,Mucolipin-3,> 29.9 µM (not active)
same,EC50,Ion channel NompC,> 29.9 µM (not active)
c1ccc(-c2nc(N3CCCCCC3)c3ccccc3n2)cc1,IC50,[8],72.2 µM (inactive)
same,IC50,[9],> 80 µM (inactive)
